Assays:
[1] = test system: Mycobacterium tuberculosis Erdman (autoluminescent); assay: total FIC50 (Loewe) at 50% inhibition, three-drug combination (log2); higher = more antagonistic
Protocol: (§1)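 DiaMOND equipotent three-drug combination dose responses (10 doses, 1.5- or 2-fold spacing, centred on IC90) against autoluminescent M. tuberculosis Erdman in 8 in vitro models. Read-out is OD600, or luminescence for the intracellular and dormancy models, normalised to untreated wells. Hill-fit Einf, AUC25 and GRinf are potency metrics; FIC50 and FIC90 are total Loewe fractional inhibitory concentrations as log2 (negative = synergy).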

[2] = test system: Mycobacterium tuberculosis Erdman (autoluminescent); assay: total FIC90 (Loewe) at 90% inhibition, three-drug combination (log2); higher = more antagonistic
Protocol: as §1

[3] = test system: Mycobacterium tuberculosis Erdman (autoluminescent); assay: Einf, fitted maximum growth inhibition of three-drug combination (fraction); higher = stronger maximal inhibition
Protocol: as §1

[4] = test system: Mycobacterium tuberculosis Erdman (autoluminescent); assay: AUC25, normalised area under dose response up to IC25 (three-drug combination) (fraction (0-1)); higher = more potent at low dose
Protocol: as §1

[5] = test system: Mycobacterium tuberculosis Erdman (autoluminescent); assay: GRinf, maximum normalised growth rate inhibition (three-drug combination) (unitless (-1 to 1)); higher = less effect (negative = killing)
Protocol: as §1

NNC(=O)c1ccncc1 [isoniazid] + CC(=O)NC[C@H]1CN(c2ccc(N3CCOCC3)c(F)c2)C(=O)O1 [linezolid] + O=[N+]([O-])c1cn2c(n1)OC[C@@H](OCc1ccc(OC(F)(F)F)cc1)C2 [pretomanid]
Conditions	AUC25, [4]	Einf, [3]	GRinf, [5]	total FIC50, [1]	total FIC90, [2]
in vitro model: acidic pH 5.7, time point: constant (~7 days, model-specific)	0.0901	0.793	-0.0622	4.28	–
in vitro model: acidic pH 5.7, time point: terminal (~4-5 doublings, model-specific)	0.0757	0.953	-0.252	4.74	4.06
in vitro model: intracellular J774, time point: constant = terminal	–	0.984	-0.382	–	1.1

Conditions	AUC25, [4]	Einf, [3]	GRinf, [5]	total FIC50, [1]	total FIC90, [2]
in vitro model: butyrate, time point: constant (~7 days, model-specific)	0.103	0.921	-0.0322	2.79	1.15
in vitro model: butyrate, time point: terminal (~4-5 doublings, model-specific)	0.0738	0.963	-0.0424	2.83	3.23
in vitro model: cholesterol 0.05 mM, time point: constant (~7 days, model-specific)	0.129	0.69	-0.147	1.32	–
in vitro model: cholesterol 0.05 mM, time point: terminal (~4-5 doublings, model-specific)	0.124	0.912	-0.296	8.62	1.89
in vitro model: cholesterol-high 0.2 mM, time point: constant (~7 days, model-specific)	0.107	0.924	-0.361	0.772	–
in vitro model: cholesterol-high 0.2 mM, time point: terminal (~4-5 doublings, model-specific)	0.101	0.991	-0.726	0.566	1.06
in vitro model: dormancy (butyrate + nitrate, low O2), time point: constant (~7 days, model-specific)	0.0625	0.868	0.121	4.26	4.03
in vitro model: dormancy (butyrate + nitrate, low O2), time point: terminal (~4-5 doublings, model-specific)	0.0423	0.987	-0.233	4.19	4.02
in vitro model: standard 7H9 glycerol, time point: constant = terminal	0.0856	0.917	0.116	4.72	6.4
in vitro model: valerate, time point: constant (~7 days, model-specific)	0.126	0.88	0.0789	2.28	8.43
in vitro model: valerate, time point: terminal (~4-5 doublings, model-specific)	0.0856	0.93	0.029	2.36	2.72

NNC(=O)c1ccncc1 [isoniazid] + CO[C@H]1/C=C/O[C@@]2(C)Oc3c(C)c(O)c4c(O)c(c(/C=N/N5CCN(C6CCCC6)CC5)c(O)c4c3C2=O)NC(=O)/C(C)=C\C=C\[C@H](C)[C@H](O)[C@@H](C)[C@@H](O)[C@@H](C)[C@H](OC(C)=O)[C@@H]1C [rifapentine] + CO[C@H]1/C=C/O[C@@]2(C)Oc3c(C)c(O)c4c(O)c(c(/C=N/N5CCN(C)CC5)c(O)c4c3C2=O)NC(=O)/C(C)=C\C=C\[C@H](C)[C@H](O)[C@@H](C)[C@@H](O)[C@@H](C)[C@H](OC(C)=O)[C@@H]1C [rifampicin]
Conditions	AUC25, [4]	Einf, [3]	GRinf, [5]	total FIC50, [1]	total FIC90, [2]
in vitro model: acidic pH 5.7, time point: constant (~7 days, model-specific)	0.0821	0.87	-0.0825	0.753	–
in vitro model: acidic pH 5.7, time point: terminal (~4-5 doublings, model-specific)	0.0679	0.98	-0.129	0.528	0.407
in vitro model: intracellular J774, time point: constant = terminal	–	0.936	-0.1	–	0.217

Conditions	AUC25, [4]	Einf, [3]	GRinf, [5]	total FIC50, [1]	total FIC90, [2]
in vitro model: butyrate, time point: constant (~7 days, model-specific)	0.104	0.922	0.00523	0.263	0.467
in vitro model: butyrate, time point: terminal (~4-5 doublings, model-specific)	0.0874	0.967	0.000636	0.203	0.338
in vitro model: cholesterol 0.05 mM, time point: constant (~7 days, model-specific)	0.112	0.62	0.0102	0.806	–
in vitro model: cholesterol 0.05 mM, time point: terminal (~4-5 doublings, model-specific)	0.0884	0.883	-0.129	0.447	-0.00675
in vitro model: cholesterol-high 0.2 mM, time point: constant (~7 days, model-specific)	0.068	0.913	-0.352	0.176	–
in vitro model: cholesterol-high 0.2 mM, time point: terminal (~4-5 doublings, model-specific)	0.055	0.998	-0.762	0.475	0.196
in vitro model: dormancy (butyrate + nitrate, low O2), time point: constant (~7 days, model-specific)	0.0473	0.859	0.242	-0.0392	-0.445
in vitro model: dormancy (butyrate + nitrate, low O2), time point: terminal (~4-5 doublings, model-specific)	0.0455	0.984	-0.157	-0.192	-0.199
in vitro model: standard 7H9 glycerol, time point: constant = terminal	0.0666	0.906	0.0924	0.523	–
in vitro model: valerate, time point: constant (~7 days, model-specific)	0.0385	0.881	-0.0115	0.498	–
in vitro model: valerate, time point: terminal (~4-5 doublings, model-specific)	0.0262	0.941	0.00295	0.354	0.159

NNC(=O)c1ccncc1 [isoniazid] + COc1c(N2C[C@@H]3CCCN[C@@H]3C2)c(F)cc2c(=O)c(C(=O)O)cn(C3CC3)c12 [moxifloxacin] + CO[C@H]1/C=C/O[C@@]2(C)Oc3c(C)c(O)c4c(O)c(c(/C=N/N5CCN(C6CCCC6)CC5)c(O)c4c3C2=O)NC(=O)/C(C)=C\C=C\[C@H](C)[C@H](O)[C@@H](C)[C@@H](O)[C@@H](C)[C@H](OC(C)=O)[C@@H]1C [rifapentine]
Conditions	AUC25, [4]	Einf, [3]	GRinf, [5]	total FIC50, [1]	total FIC90, [2]
in vitro model: acidic pH 5.7, time point: constant (~7 days, model-specific)	0.0764	0.856	-0.0715	0.631	–
in vitro model: acidic pH 5.7, time point: terminal (~4-5 doublings, model-specific)	0.0472	0.974	-0.112	0.694	0.483
in vitro model: intracellular J774, time point: constant = terminal	–	0.952	-0.208	–	0.563

Conditions	AUC25, [4]	Einf, [3]	GRinf, [5]	total FIC50, [1]	total FIC90, [2]
in vitro model: butyrate, time point: constant (~7 days, model-specific)	0.0757	0.917	0.00281	0.673	0.414
in vitro model: butyrate, time point: terminal (~4-5 doublings, model-specific)	0.0584	0.965	0.00571	0.595	0.447
in vitro model: cholesterol 0.05 mM, time point: constant (~7 days, model-specific)	0.102	0.644	-0.051	0.862	–
in vitro model: cholesterol 0.05 mM, time point: terminal (~4-5 doublings, model-specific)	0.0878	0.88	-0.115	0.866	0.95
in vitro model: cholesterol-high 0.2 mM, time point: constant (~7 days, model-specific)	0.0823	0.922	-0.472	0.636	–
in vitro model: cholesterol-high 0.2 mM, time point: terminal (~4-5 doublings, model-specific)	0.0703	1	-0.778	0.916	0.976
in vitro model: dormancy (butyrate + nitrate, low O2), time point: constant (~7 days, model-specific)	0.0676	0.866	0.268	0.401	0.429
in vitro model: dormancy (butyrate + nitrate, low O2), time point: terminal (~4-5 doublings, model-specific)	0.0486	0.97	-0.0791	0.655	0.61
in vitro model: standard 7H9 glycerol, time point: constant = terminal	0.0438	0.911	0.0464	0.774	0.752
in vitro model: valerate, time point: constant (~7 days, model-specific)	0.0564	0.866	-0.0209	0.608	–
in vitro model: valerate, time point: terminal (~4-5 doublings, model-specific)	0.0386	0.933	-0.00377	0.659	0.621

Reference: the supplement of paper PMC8617591
